Source: US7939552B2, “Benzyloxypropylamine derivative” (Nippon Zoki Pharmaceutical Co., Ltd., priority 2005, dated 2011)
Where a name gives a salt, the structure may show the parent alone.

Legend:
[1] = Pharmacokinetic test in blood by a single oral administration to guinea pigs; type: in vivo; settings: male, Hartley, guinea pig, po, 100 mg/kg orally, plasma; for AUC(0-t): read-out: AUC 0-24 h; for Cmax: read-out: Cmax; for Tmax: read-out: Tmax; for half-life: read-out: t½ (converted)
Experimental: Male guinea pigs of a Hartley strain (SPF, Nippon SLC) were purchased and subjected to a preliminary breeding for one week and the normally grown ones were fasted for one night and used for the test. The compound of the present invention was suspended in 1 g/dL methyl cellulose solution and 100 mg/kg was orally administered in an administering dose of 5 mL/kg. After 0.5, 1, 2, 4, 8 and 24 hour(s) from the oral administration, about 0.4 mL of blood was collected from the vein of median of foreleg using a heparinized capillary. Plasma prepared by its centrifugation (at 12,000 rpm for 10 minutes) was stored at −80° C. until the measurement. Measurement of the concentration in blood was conducted by a UV-detecting HPLC method.

human NK1 receptor = target: T1, human NK1 receptor (Homo sapiens, UniProt P25103); assay: Human NK1 receptor binding assay (3H-Sar9-SP, hNK1-CHO cells); settings: room temperature 60 minutes
T1 construct: expressed in transfected cells; host or cells: CHO cells (hNK1-CHO)
Experimental: A supernatant liquid was removed from an hNK1-CHO cell incubation flask in a confluent state, trypsin (0.25%)-EDTA (1 mmol/L) (Gibco) was added thereto and the cells were exfoliated and recovered. After they were washed with a buffer A (pH 7.5; 50 mmol/L Tris hydrochloride 50 mmol/L, 150 mmol/L NaCl and 0.02% BSA) for one time (at […] for 5 minutes), cell numbers were adjusted and re-floated on a buffer for assay {a buffer A to which 40 μg/mL bacitracin (Sigma), 4 μg/mL leupeptin (Sigma), 4 μg/mL chymostatin (Sigma) and 4 μg/mL phosphoramidon (Sigma) were added}. The hNK1-CHO cells (100 μL) were placed in a tube (TPX-12, Maruemu) in which 300 μL of the buffer for assay was charged so as to make cells 10^5 per tube, 50 μL of a hot solution (^3H-Sar^9-SP, final concentration: […]) and 50 μL of a substance to be tested were added (a system of 500 μL), stirred and made to react at room temperature for 60 minutes. After completion of the reaction, it was filtered through a GF/B filter (25 mm diameter, Whatman) which was previously dipped in 0.1% polyethyleneimine p-70 (Wako Pure Chemical), washed with the buffer A (4 mL each for three times), placed in a vial and dried at 60° C. for one night. After drying, 10 mL of a scintillator (AL-1, toluene base, Dojindo) was added thereto and dpm was measured by a liquid scintillation counter (for 5 minutes/vial).
With regard to a nonspecific binding, it was defined as the dpm when 10 μmol/L of the substance P was added instead of the substance to be tested. The experiment was conducted in duplicate and at least three experiments were repeated. IC50 value was calculated using a probit method (statistic library II, Yukms).

T1 sequence (P25103 whole entry): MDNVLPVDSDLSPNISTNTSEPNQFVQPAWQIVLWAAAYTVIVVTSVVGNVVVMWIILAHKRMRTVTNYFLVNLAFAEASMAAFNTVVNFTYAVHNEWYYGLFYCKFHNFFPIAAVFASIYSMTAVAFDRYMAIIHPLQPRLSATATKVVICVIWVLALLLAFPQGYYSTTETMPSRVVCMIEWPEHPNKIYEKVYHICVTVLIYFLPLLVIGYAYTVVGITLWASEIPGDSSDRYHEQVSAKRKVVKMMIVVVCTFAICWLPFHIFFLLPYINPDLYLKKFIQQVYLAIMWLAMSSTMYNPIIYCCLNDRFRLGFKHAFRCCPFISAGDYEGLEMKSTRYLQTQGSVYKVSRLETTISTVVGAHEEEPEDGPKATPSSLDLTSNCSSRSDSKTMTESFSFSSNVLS

Row | SMILES | AUC(0-t) [1] [µg·h/mL] | Cmax [1] [ng/mL] | Tmax [1] [h] | half-life [1] [h] | IC50 (human NK1 receptor) [nM]
1 | Cl.O=C(NCC(COCc1cc(C(F)(F)F)cc(C(F)(F)F)c1)c1ccccc1)c1ccc(CN2CCCC2)cc1 (stereo not shown) [Compound 64, N-[3-(3,5-Bis(trifluoromethyl)benzyloxy)-2-phenylpropyl]-4-pyrrolidin-1-ylmethylbenzamide hydrochloride] | 19.7 | 1700 | 4 | 8 | 56.4
2 | O=C(NCC(COCc1cc(C(F)(F)F)cc(C(F)(F)F)c1)c1ccccc1)c1ccc[n+]([O-])c1 (stereo not shown) [Compound 22, N-[3-(3,5-Bis(trifluoromethyl)benzyloxy)-2-phenylpropyl]-1-oxynicotinamide] | 200 | 18300 | 2 | 2.6 | 6.4
3 | O=C(Cc1cc[n+]([O-])cc1)NCC(COCc1cc(C(F)(F)F)cc(C(F)(F)F)c1)c1ccccc1 (stereo not shown) [Compound 39, N-[3-(3,5-Bis(trifluoromethyl)benzyloxy)-2-phenylpropyl]-2-(1-oxypyridin-4-yl)acetamide] | 379 | 25700 | 8 | 3.2 | 7.3
4 | O=C(Cc1ccc[n+]([O-])c1)NCC(COCc1cc(C(F)(F)F)cc(C(F)(F)F)c1)c1ccc(F)cc1 (stereo not shown) [Compound 42, N-[3-(3,5-Bis(trifluoromethyl)benzyloxy)-2-(4-fluorophenyl)propyl]-2-(1-oxypyridin-3-yl)acetamide] | 215 | 16900 | 4 | 3 | 4
5 | O=C(NCC(COCc1cc(C(F)(F)F)cc(C(F)(F)F)c1)c1ccccc1)c1cc[n+]([O-])cc1 (stereo not shown) [Compound 20, N-[3-(3,5-Bis(trifluoromethyl)benzyloxy)-2-phenylpropyl]-1-oxyisonicotinamide] | 87.3 | 10900 | 2 | 3.4 | 5.8
6 | O=C(CCc1cc[n+]([O-])cc1)NCC(COCc1cc(C(F)(F)F)cc(C(F)(F)F)c1)c1ccccc1 (stereo not shown) [Compound 51, N-[3-(3,5-Bis(trifluoromethyl)benzyloxy)-2-phenylpropyl]-3-(1-oxypyridin-4-yl)propionamide] | 103 | 13800 | 1 | 3.4 | 9.4
7 | O=C(CN1CCC(C(=O)O)CC1)NCC(COCc1cc(C(F)(F)F)cc(C(F)(F)F)c1)c1ccccc1 (stereo not shown) [Compound 90, 1-{[3-(3,5-Bis(trifluoromethyl)benzyloxy)-2-phenylpropylcarbamoyl]methyl}piperidine-4-carboxylic acid] |  |  |  |  | 44
8 | C[n+]1ccc(C(=O)NCC(COCc2cc(C(F)(F)F)cc(C(F)(F)F)c2)c2ccccc2)cc1 (stereo not shown) [Compound 26, 4-[3-(3,5-Bis(trifluoromethyl)benzyloxy)-2-phenylpropylcarbamoyl]-1-methylpyridinium iodide] |  |  |  |  | 5.9
9 | Cl.O=C(NCC(COCc1cc(C(F)(F)F)cc(C(F)(F)F)c1)c1ccccc1)C1CCNCC1 (stereo not shown) [Compound 4, N-[3-(3,5-Bis(trifluoromethyl)benzyloxy)-2-phenylpropyl]piperidine-4-carboxamide hydrochloride] | 28.2 | 2000 | 8 |  | 29.3
10 | CN(CC(COCc1cc(C(F)(F)F)cc(C(F)(F)F)c1)c1ccc(F)cc1)C(=O)c1ccnc(O)c1 (stereo not shown) [Compound 100, N-[3-(3,5-Bis(trifluoromethyl)benzyloxy)-2-(4-fluorophenyl)propyl]-2-hydroxy-N-methylisonicotinamide] |  |  |  |  | 11.9
11 | CN1CCC(C(=O)N(C)CC(COCc2cc(C(F)(F)F)cc(C(F)(F)F)c2)c2ccccc2)CC1 (stereo not shown) [Compound 96, N-[3-(3,5-Bis(trifluoromethyl)benzyloxy)-2-phenylpropyl]-N-methyl-1-methylpiperidine-4-carboxamide hydrochloride] |  |  |  |  | 28.5
12 | O=C(O)CN1CCC(C(=O)NCC(COCc2cc(C(F)(F)F)cc(C(F)(F)F)c2)c2ccccc2)CC1 (stereo not shown) [Compound 80, {4-[3-(3,5-Bis(trifluoromethyl)benzyloxy)-2-phenylpropylcarbamoyl]piperidin-1-yl}acetic acid hydrochloride] |  |  |  |  | 14.7
13 | O=C(Cc1ccc[n+]([O-])c1)NCC(COCc1cc(C(F)(F)F)cc(C(F)(F)F)c1)c1ccccc1 (stereo not shown) [Compound 41, N-[3-(3,5-Bis(trifluoromethyl)benzyloxy)-2-phenylpropyl]-2-(1-oxypyridin-3-yl)acetamide] |  |  |  |  | 9.2
14 | O=C(NCC(COCc1cc(C(F)(F)F)cc(C(F)(F)F)c1)c1ccc(F)cc1)c1ccc[n+]([O-])c1 (stereo not shown) [Compound 23, N-[3-(3,5-Bis(trifluoromethyl)benzyloxy)-2-(4-fluorophenyl)propyl]-1-oxynicotinamide] | 236 | 17500 | 4 | 3.5 | 5.4
15 | CN(CC(COCc1cc(C(F)(F)F)cc(C(F)(F)F)c1)c1ccccc1)C(=O)CCN (stereo not shown) [Compound 102, N-[3-(3,5-Bis(trifluoromethyl)benzyloxy)-2-phenylpropyl]-N-methyl-3-aminopropionamide hydrochloride] |  |  |  |  | 35.5
16 | O=C(Cc1cc[n+]([O-])cc1)NCC(COCc1cc(C(F)(F)F)cc(C(F)(F)F)c1)c1ccc(F)cc1 (stereo not shown) [Compound 40, N-[3-(3,5-Bis(trifluoromethyl)benzyloxy)-2-(4-fluorophenyl)propyl]-2-(1-oxypyridin-4-yl)acetamide] | 279 | 22800 | 4 | 4 | 7.3
17 | CN(CC(COCc1cc(C(F)(F)F)cc(C(F)(F)F)c1)c1ccc(F)cc1)C(=O)CCN (stereo not shown) [Compound 104, 3-Amino-N-[3-(3,5-bis(trifluoromethyl)benzyloxy)-2-(4-fluorophenyl)propyl]-N-methylpropionamide hydrochloride] |  |  |  |  | 6.5
